Seven compounds from ChEMBL document CHEMBL1201862, “PubChem BioAssay data set” (2004) can be followed below.

The term Ki denotes a dissociation constant, usually derived from enzyme kinetics or from competition with a known ligand. What is called IC50 is the concentration at which inhibition is half-maximal. Usually EC50 stands for the midpoint of the concentration-response curve. What is called AC50 is the concentration at which the activity in the assay is half-maximal. A word on the CC50: it is the concentration giving 50% cytotoxicity.

One test deals with fMet-Leu-Phe receptor (Homo sapiens, UniProt P21462). The test can be described thus: formyl peptide receptor binders – dose response (AID 519). The test is classed as functional.
Another test can be described thus: cells. The test is classed as functional.
The target of another test is Kallikrein-7 (Homo sapiens, UniProt P49862). Description: Fluorescence Intensity-based biochemical primary high throughput dose response assay to identify activators of kallikrein-7 (K7) zymogen.
Kallikrein-7, sequence (P49862 whole entry): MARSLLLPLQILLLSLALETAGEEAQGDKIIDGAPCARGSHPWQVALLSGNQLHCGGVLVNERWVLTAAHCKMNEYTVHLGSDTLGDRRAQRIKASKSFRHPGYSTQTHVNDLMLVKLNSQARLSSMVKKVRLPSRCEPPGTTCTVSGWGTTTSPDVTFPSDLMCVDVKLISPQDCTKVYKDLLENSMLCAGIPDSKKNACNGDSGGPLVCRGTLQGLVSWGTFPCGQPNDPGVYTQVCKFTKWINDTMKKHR
The target of test [1] is T1, RNA-binding protein pos-1 (Caenorhabditis elegans, UniProt G5EF15).
T1 sequence (G5EF15 whole entry): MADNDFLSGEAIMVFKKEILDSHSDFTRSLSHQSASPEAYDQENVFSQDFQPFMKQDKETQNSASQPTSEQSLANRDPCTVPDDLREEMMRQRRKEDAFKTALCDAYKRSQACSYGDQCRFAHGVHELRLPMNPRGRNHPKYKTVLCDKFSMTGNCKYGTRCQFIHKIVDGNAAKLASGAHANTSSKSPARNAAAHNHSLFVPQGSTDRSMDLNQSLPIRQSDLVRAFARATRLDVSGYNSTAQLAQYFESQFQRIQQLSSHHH
Description: disruptors of C. elegans POS-1 RNA interaction – biochemical, fluorescence polarization, dose response (AID 1964).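 Further: purified POS-1 fused to maltose binding protein made in E. coli; potency of compounds blocking POS-1 binding to fluorescent RNA.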 Background: Fluorescence polarisation rises when a labelled molecule tumbles more slowly, as on binding a larger partner.

In test [2] the target is T2, Zinc finger protein mex-5 (Caenorhabditis elegans, UniProt Q9XUB2).
T2 sequence (Q9XUB2 whole entry): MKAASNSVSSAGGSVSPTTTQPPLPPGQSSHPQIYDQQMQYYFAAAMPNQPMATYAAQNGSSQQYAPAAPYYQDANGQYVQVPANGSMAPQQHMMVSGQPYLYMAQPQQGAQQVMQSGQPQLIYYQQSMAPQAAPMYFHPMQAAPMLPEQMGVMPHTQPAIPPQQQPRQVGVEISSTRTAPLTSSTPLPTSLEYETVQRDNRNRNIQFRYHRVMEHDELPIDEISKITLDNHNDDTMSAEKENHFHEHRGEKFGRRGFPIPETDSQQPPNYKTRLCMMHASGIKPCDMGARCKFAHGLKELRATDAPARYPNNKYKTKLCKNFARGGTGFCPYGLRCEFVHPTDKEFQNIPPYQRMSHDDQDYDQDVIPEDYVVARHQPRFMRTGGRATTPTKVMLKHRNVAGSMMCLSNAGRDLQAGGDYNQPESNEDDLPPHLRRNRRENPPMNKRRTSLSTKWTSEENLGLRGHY
Description: potency of MEX-5 RNA-binding blockers – biochemical, C. elegans, fluorescence polarization, dose response (AID 1960).

In test [3] the target is Glucose-6-phosphate 1-dehydrogenase (Homo sapiens, UniProt P11413). Description: inhibition of Homo sapiens G6PD, dose series – biochemical, fluorescence, selectivity assay for P. falciparum G6PD inhibitor project, dose response (AID 504792). The test is classed as functional.
Test [4] addresses T3, Carboxy-terminal domain RNA polymerase II polypeptide A small phosphatase 1 (Homo sapiens, UniProt Q9GZU7).
T3 sequence (Q9GZU7 whole entry): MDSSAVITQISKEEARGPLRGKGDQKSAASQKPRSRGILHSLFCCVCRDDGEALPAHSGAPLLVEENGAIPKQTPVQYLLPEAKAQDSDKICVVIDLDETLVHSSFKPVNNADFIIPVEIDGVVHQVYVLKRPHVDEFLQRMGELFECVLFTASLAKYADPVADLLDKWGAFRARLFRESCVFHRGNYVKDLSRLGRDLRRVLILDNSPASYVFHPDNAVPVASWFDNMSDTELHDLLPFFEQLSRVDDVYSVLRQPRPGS
The test can be described thus: CTDSP1 inhibitors, concentration-response, biochemical, absorbance readout, ultra-high-throughput screen actives (AID 540297). The test is classed as functional.

The target of test [5] is 1-phosphatidylinositol 4,5-bisphosphate phosphodiesterase gamma-1 (Homo sapiens, UniProt P19174). Description: Counterscreen for inhibitors of phospholipase C isozymes (PLC-B3): Fluorescence-based biochemical high throughput dose response assay to identify inhibitors of phospholipase C isozymes (PLC-gamma1). On the technique in general: Counterscreens check selectivity or assay interference.
1-phosphatidylinositol 4,5-bisphosphate phosphodiesterase gamma-1, sequence (P19174 whole entry): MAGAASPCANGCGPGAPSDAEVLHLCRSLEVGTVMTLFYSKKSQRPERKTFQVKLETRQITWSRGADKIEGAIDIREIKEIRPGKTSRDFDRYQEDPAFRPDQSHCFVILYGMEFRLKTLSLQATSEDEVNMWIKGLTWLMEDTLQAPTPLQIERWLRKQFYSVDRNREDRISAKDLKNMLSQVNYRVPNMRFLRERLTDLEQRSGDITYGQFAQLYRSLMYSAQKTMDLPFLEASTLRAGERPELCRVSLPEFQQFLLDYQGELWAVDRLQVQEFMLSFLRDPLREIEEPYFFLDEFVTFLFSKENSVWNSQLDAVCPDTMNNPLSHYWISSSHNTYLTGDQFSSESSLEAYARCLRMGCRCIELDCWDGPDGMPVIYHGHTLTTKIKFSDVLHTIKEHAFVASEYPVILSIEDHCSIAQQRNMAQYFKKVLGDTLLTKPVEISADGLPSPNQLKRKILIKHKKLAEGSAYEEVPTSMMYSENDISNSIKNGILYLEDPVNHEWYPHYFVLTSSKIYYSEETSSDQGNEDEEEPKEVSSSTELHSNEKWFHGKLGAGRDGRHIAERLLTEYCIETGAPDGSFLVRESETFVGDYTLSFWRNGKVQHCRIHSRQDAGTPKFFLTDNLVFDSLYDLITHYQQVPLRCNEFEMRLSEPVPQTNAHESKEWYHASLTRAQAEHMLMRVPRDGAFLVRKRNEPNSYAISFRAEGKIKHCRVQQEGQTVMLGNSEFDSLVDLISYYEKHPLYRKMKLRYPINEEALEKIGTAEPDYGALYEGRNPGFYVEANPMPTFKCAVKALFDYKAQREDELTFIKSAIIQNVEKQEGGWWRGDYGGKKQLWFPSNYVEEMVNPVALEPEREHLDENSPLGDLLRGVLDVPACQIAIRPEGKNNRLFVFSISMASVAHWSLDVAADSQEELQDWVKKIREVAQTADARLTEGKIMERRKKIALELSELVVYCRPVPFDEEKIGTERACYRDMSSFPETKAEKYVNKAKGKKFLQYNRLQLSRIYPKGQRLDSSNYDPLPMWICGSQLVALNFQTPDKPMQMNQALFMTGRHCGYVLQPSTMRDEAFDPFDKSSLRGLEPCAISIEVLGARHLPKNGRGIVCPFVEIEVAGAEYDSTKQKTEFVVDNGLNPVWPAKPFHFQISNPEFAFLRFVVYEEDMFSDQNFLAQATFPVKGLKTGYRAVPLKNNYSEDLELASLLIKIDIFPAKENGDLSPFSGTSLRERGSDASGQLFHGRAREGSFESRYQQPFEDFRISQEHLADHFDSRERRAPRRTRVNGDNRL

Test [6] deals with 1-phosphatidylinositol 4,5-bisphosphate phosphodiesterase beta-3 (Homo sapiens, UniProt Q01970). Description: Fluorescence-based biochemical high throughput dose response assay to identify inhibitors of phospholipase C isozymes (PLC-B3).
1-phosphatidylinositol 4,5-bisphosphate phosphodiesterase beta-3, sequence (Q01970 whole entry): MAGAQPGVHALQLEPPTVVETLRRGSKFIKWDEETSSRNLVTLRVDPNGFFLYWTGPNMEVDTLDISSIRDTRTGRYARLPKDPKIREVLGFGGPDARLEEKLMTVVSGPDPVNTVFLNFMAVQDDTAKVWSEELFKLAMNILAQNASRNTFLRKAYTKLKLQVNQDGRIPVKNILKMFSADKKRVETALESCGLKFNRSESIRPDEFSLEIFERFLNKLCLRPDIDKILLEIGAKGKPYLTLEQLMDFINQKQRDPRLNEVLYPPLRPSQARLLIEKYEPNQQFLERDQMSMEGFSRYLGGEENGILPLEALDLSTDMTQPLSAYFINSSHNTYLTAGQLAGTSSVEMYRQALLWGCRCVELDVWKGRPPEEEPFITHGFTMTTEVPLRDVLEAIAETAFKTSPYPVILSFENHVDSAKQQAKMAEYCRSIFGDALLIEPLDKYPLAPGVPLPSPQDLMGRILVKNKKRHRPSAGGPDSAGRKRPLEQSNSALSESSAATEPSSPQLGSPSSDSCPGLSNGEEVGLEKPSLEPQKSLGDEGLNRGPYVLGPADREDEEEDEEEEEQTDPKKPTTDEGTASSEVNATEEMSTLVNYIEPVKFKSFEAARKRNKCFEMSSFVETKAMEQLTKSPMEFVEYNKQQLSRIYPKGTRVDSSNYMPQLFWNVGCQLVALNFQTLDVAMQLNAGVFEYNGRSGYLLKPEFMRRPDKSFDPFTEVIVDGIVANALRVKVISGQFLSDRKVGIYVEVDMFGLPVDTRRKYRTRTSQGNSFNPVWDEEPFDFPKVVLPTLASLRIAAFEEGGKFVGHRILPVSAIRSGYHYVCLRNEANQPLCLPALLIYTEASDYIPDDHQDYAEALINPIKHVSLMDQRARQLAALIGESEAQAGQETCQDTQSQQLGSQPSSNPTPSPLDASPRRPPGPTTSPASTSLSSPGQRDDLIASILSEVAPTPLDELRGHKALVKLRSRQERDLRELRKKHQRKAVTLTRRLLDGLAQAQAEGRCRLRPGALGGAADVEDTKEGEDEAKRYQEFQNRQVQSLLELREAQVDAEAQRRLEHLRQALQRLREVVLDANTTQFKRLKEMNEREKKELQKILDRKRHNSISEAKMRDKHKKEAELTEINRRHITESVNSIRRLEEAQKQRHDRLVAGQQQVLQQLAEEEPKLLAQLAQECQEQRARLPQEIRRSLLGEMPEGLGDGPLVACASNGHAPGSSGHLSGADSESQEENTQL
Test [7] has as its target T4, Microphthalmia-associated transcription factor (Homo sapiens, UniProt O75030).
T4 sequence (O75030 whole entry): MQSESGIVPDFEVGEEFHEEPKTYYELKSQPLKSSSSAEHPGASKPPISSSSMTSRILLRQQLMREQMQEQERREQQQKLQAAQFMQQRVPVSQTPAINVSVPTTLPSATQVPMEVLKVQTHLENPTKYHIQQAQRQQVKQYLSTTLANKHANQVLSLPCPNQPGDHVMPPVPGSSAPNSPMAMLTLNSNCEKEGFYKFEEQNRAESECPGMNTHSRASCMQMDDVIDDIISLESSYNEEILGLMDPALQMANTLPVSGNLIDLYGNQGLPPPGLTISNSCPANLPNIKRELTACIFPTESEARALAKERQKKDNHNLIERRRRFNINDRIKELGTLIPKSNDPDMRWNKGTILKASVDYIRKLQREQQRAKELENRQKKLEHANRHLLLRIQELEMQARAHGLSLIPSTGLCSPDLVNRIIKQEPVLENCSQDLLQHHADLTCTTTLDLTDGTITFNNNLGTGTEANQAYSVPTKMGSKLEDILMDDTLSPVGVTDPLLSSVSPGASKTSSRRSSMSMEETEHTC
Description: reducers of TRPM1 reporter luminescence, concentration series – cell-based, SK-MEL-5, cherry-picked, set 3, MITF inhibitor project, dose response (AID 493073).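 Further: SK-MEL-5 melanoma cells with luciferase driven by the MITF target TRPM1 promoter.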 It is filed as functional.

Test [8] in a line: reduction of Shn3 3'UTR-driven luciferase in osteoblasts – cell-based, Clone20 osteoblasts, firefly luciferase, cherry-picked, dose response (AID 624132).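 Further: firefly luciferase luminescence from reporter carrying the Shn3 3'UTR in osteoblasts.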 It is filed as functional.
In a further test the target is Paired box protein Pax-8 (Homo sapiens, UniProt Q06710). Description: PAX8 transcriptional activity inhibition in RMG-I – RMG-I cells, luciferase, cherry-pick, dose response (AID 687027).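 Further: luciferase reporter driven by Pax8 target thyroperoxidase promoter measured by SteadyGlo luminescence.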 The test is classed as functional, cell-based.
A short description of test [9]: Shn3 3'UTR reporter signal decrease – cell-based, Clone20 osteoblasts, firefly luciferase, cherry-pick, set 2, Schnurri-3 inhibitor project, dose response (AID 720490).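 Further: actives lower the luminescence signal as inhibitors.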 It is filed as functional.
Test [10] concerns the target Glutathione-S-transferase (Schistosoma japonicum, UniProt Q26513). The test can be described thus: GST-antibody interaction or FRET quenching – biochemical, TR-FRET, artefact control for Vif-APOBEC3G degradation inhibitor project, dose response (AID 1117362). It is filed as functional. For orientation: TR-FRET usually uses a lanthanide donor and a delayed reading to cut background.

Test [11] has as its target T5, Heat shock factor protein 1 (Mus musculus, UniProt P38532).
T5 sequence (P38532 whole entry): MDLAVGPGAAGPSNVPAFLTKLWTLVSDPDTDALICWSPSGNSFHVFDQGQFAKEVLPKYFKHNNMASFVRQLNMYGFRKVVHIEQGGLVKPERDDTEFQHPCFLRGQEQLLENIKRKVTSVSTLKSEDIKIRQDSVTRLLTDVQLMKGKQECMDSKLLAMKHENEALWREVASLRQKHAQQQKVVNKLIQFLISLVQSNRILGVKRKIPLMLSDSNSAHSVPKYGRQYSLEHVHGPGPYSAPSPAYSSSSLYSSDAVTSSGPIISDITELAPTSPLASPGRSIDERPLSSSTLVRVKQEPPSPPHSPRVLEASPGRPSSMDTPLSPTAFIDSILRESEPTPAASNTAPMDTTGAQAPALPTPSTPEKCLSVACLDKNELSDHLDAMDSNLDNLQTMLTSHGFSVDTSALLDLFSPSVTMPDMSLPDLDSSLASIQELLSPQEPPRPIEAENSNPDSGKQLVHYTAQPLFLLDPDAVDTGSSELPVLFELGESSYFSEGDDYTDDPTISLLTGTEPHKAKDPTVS
Description: enhancement of HSF1-driven luciferase signal – cell-based, NIH3T3, luminescence, dose retest, confirmation (AID 435004).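 Further: stress induced by proteasome inhibitor MG132 added 30 min after compound; luciferase reporter driven by HSF1 response element in NIH3T3 cells; actives raise luminescence as potentiators of the MG132 stress response.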 The test is classed as functional.

In test [12] the test system is Vero. The test can be described thus: cells. The test is classed as functional, cell-based. Particulars: Chlorocebus sabaeus.
The test system of test [13] is Vero. Description: cells. Particulars: Chlorocebus sabaeus. It is filed as functional.
Test [14] can be described thus: viability loss in HepG2 hepatoma cells – cell-based, ATP luminescence, cherry-pick, activator set 2, cytotoxicity control, dose response (AID 1053143). The test is classed as functional.
The next test concerns the target Nonstructural protein 1 (Influenza A virus, UniProt Q194T2). It is filed as functional, Influenza A virus (A/California/07/2009(H1N1)).
Test [15] addresses Ras and Rab interactor 1/Tyrosine-protein kinase ABL1 (Homo sapiens, UniProt P00519+Q13671). The test is classed as functional.

Activity calls are given as the source filed them.

Glutathione-S-transferase, sequence (Q26513 whole entry): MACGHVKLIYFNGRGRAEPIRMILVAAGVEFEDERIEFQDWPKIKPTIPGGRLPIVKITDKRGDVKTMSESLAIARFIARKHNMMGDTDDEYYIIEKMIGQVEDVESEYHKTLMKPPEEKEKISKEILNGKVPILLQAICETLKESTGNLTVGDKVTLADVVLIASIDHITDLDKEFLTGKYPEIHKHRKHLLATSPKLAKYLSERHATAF
Ras and Rab interactor 1/Tyrosine-protein kinase ABL1, sequence (P00519 whole entry): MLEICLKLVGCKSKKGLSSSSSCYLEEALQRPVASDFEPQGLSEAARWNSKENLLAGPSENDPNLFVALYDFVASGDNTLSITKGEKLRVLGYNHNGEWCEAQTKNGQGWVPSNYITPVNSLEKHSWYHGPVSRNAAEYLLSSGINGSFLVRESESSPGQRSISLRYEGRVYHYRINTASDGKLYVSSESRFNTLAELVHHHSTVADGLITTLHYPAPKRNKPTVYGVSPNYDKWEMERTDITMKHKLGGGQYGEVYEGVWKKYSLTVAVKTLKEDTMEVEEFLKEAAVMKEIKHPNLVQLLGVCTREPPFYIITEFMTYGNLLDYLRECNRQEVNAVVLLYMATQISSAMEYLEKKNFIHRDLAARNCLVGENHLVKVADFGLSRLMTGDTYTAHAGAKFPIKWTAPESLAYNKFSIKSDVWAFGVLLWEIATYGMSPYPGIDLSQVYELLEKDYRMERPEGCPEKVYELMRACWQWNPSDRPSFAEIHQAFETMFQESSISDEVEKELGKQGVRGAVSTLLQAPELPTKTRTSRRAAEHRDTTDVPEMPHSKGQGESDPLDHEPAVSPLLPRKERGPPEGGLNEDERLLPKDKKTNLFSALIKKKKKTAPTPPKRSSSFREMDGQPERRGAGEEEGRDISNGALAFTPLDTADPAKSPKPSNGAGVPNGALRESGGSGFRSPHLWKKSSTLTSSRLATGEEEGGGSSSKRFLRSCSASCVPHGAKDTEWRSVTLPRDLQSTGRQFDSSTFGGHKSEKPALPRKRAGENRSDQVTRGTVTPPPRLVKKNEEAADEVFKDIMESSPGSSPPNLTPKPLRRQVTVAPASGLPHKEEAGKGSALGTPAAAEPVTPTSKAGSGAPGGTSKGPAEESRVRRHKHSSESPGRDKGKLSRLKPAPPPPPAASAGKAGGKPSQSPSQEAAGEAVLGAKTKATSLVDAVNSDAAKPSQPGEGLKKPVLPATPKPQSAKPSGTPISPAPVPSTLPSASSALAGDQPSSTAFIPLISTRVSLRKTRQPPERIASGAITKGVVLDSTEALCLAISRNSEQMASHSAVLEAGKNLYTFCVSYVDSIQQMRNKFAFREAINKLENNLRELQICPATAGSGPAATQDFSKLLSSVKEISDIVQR
Ras and Rab interactor 1/Tyrosine-protein kinase ABL1, sequence (Q13671 whole entry): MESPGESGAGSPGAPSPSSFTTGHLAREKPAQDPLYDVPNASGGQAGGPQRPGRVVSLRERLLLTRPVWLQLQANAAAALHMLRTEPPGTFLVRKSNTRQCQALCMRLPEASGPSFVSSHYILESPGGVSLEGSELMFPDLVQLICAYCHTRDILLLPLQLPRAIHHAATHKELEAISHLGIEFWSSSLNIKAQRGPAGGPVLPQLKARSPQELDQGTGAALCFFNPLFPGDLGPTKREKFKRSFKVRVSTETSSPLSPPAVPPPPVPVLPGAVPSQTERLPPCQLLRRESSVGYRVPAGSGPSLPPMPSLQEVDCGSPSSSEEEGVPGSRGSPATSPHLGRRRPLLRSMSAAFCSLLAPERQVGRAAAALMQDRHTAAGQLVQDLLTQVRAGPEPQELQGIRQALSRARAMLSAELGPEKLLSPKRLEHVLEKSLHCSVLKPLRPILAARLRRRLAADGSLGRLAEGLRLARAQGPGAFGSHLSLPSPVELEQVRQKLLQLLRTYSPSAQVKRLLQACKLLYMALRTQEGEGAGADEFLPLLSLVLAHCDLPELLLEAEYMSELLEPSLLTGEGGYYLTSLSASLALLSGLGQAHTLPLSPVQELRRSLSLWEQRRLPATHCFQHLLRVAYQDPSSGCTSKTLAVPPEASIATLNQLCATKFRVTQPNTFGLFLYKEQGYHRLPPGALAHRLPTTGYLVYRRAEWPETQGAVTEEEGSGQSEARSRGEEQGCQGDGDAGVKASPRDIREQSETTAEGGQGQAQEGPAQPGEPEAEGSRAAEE

For the compound `CCc1cc2c(=O)c(-c3nc4ccccc4n3C)c(COCC(=O)O)oc2cc1OC(=O)C(C)(C)C`, the Ki at fMet-Leu-Phe receptor is > 66.7 µM (inactive).

With `CCOC(=O)COc1ccc2c(c1)C(=O)CC1(CCCCC1)O2`, the IC50 in “cells” is 1.18 µM (active). Moreover, the EC50 on Kallikrein-7 was > 69.5 µM (inactive).

For `O=C(O)c1ccc(-n2c(-c3cc(-c4ccco4)[nH]n3)n[nH]c2=S)cc1`, the values for the EC50 in test [1] and in test [2] were 4.19 µM (inconclusive) and 4.74 µM (inconclusive), respectively. Besides, the IC50 is > 80 µM (inactive) in test [3], 1.59 µM (active) in test [4], 102 µM (inactive) in [5] and > 122 µM (inactive) in [6].

Turning to `Cc1ccc(-c2cn3cc(C)ccc3n2)cc1`, the AC50 is 2.03 µM (active) in [7], 1.32 µM (active) in test [8], 3.46 µM (active) at Paired box protein Pax-8 and 7.73 µM (active) in test [9].

Turning to `CC[n+]1ccc(C)c2cc([S+]([O-])C(F)(F)F)ccc21` (stereo unspecified), in test [10], the IC50 was 55.4 µM (active).

With `O=C(Nc1ccc(Cl)cn1)c1ccc([N+](=O)[O-])o1`, the concentration giving a half-maximal response (EC50) in test [11] was 20.8 µM (active). Moreover, in the test on Vero [12], the IC50 was > 25 µM (active). Further, the CC50 in the test with Vero [13] is 16.9 µM (active). Besides, in [14], the concentration at half-maximal activity (AC50) is 26 µM (active).

For the compound `Cc1c(F)cccc1NC(=O)CCCCCC1NC(=O)NC1C` (stereo unspecified), the half-maximal inhibitory concentration (IC50) at Nonstructural protein 1 is 1.18 µM (active); in [15], 0.0143 µM (active); in test [10], 29.8 µM (active).
